Patent US20250179061A1 (SIRONAX LTD., priority 2022, published 2025)
Where a name gives a salt, the structure may show the parent alone. Read-outs that look alike come from different tables or passages of the source.

Tested on: HT-29 cells
Assay: HT-29 necroptosis cell viability assay (TNF-α/SMAC mimetic/zVAD-FMK, CellTiter-Glo)
Type: cell-based
Procedure, shortened: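 Necroptosis was triggered by TNF-α (10 ng/ml), SMAC mimetic (6 μM) and zVAD-FMK (10 μM) in serum-free medium during 20 h compound exposure (10 concentrations, threefold steps) of HT-29 cells. IC50 from duplicate dose-responses uses CellTiter-Glo ATP luminescence as viability read-out.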

[1] = Homo sapiens, HT-29, HT-29 necroptosis cell viability assay, class symbols for IC50, read-out: Activity
[2] = Homo sapiens, HT-29, HT-29 necroptosis cell viability, IC50 class symbols, read-out: Activity
[3] = Homo sapiens, HT-29 cells stimulated with TNF-α (10 ng/ml), SMAC mimetic (6 μM) and zVAD-FMK (10 μM), 20 hours, CellTiter-Glo ATP luminescence, geometric mean IC50 from 10 points, read-out: Activity

Row | SMILES | IC50 [1] [nM] | IC50 [2] [nM] | further results
1 | N#CCc1nc(COc2ccc(-n3ncn(Cc4c(F)cccc4F)c3=O)cc2F)cs1 [Example 655, 2-[4-[[4-[4-[(2,6-difluorophenyl)methyl]-5-oxo-1,2,4-triazol-1-yl]-2-fluoro-phenoxy]methyl]thiazol-2-yl]acetonitrile] | – | – | IC50 (Homo sapiens, HT-29, HT-29 cells, necroptosis induced by TNF-α/SMAC mimetic/zVAD-FMK, CellTiter-Glo, read-out: Activity (IC50 class)): 100 to 1000 nM
2 | Cc1nn(C2COC2)c(C)c1Oc1ccc(-n2ncn(Cc3c(F)cccc3F)c2=O)cc1F [Example 177, 4-(2,6-difluorobenzyl)-2-(4-((3,5-dimethyl-1-(oxetan-3-yl)-1H-pyrazol-4-yl)oxy)-3-fluorophenyl)-2,4-dihydro-3H-1,2,4-triazol-3-one] | < 100 | – | –
3 | Cc1nc(N2CC(C)(NC(=O)OC(C)(C)C)C2)sc1C(C)c1ccc(-n2ncn(Cc3c(F)cccc3F)c2=O)cc1 (stereo not shown) [Example 514, tert-butyl (1-(5-(1-(4-(4-(2,6-difluorobenzyl)-5-oxo-4,5-dihydro-1H-1,2,4-triazol-1-yl)phenyl)ethyl)-4-methylthiazol-2-yl)-3-methylazetidin-3-yl)carbamate] | < 100 | – | –
4 | O=c1n(Cc2c(F)cccc2F)cnn1-c1ccc(Oc2ccnc(NCC3COC3)c2)cc1 [Example 341, 4-(2,6-difluorobenzyl)-2-(4-((2-((oxetan-3-ylmethyl)amino)pyridin-4-yl)oxy)phenyl)-2,4-dihydro-3H-1,2,4-triazol-3-one] | – | 1000 to 10000 | –
5 | Cc1ncsc1Oc1ccc(-n2ncn(Cc3cc(F)ccc3F)c2=O)cc1F [Example 563, 4-(2,5-difluorobenzyl)-2-(3-fluoro-4-((4-methylthiazol-5-yl)oxy)phenyl)-2,4-dihydro-3H-1,2,4-triazol-3-one] | < 100 | – | –
6 | Cc1nc(C(N)=O)sc1Oc1ccc(-n2ncn(Cc3c(F)cccc3C#N)c2=O)cc1F [Example 567, 5-(4-(4-(2-cyano-6-fluorobenzyl)-5-oxo-4,5-dihydro-1H-1,2,4-triazol-1-yl)-2-fluorophenoxy)-4-methylthiazole-2-carboxamide] | < 100 | – | –
7 | Cn1nc(C(C)(C)O)cc1Oc1ccc(-n2ncn(Cc3c(F)cccc3F)c2=O)cc1F [Example 134, 4-(2,6-difluorobenzyl)-2-(3-fluoro-4-((3-(2-hydroxypropan-2-yl)-1-methyl-1H-pyrazol-5-yl)oxy)phenyl)-2,4-dihydro-3H-1,2,4-triazol-3-one] | < 100 | – | –
8 | N#CC12CC(Nc3cc(Oc4ccc(-n5ncn(Cc6c(F)cccc6F)c5=O)cc4)c(Cl)cn3)(C1)C2 [Example 325, 3-((5-chloro-4-(4-(4-(2,6-difluorobenzyl)-5-oxo-4,5-dihydro-1H-1,2,4-triazol-1-yl)phenoxy)pyridin-2-yl)amino)bicyclo[1.1.1]pentane-1-carbonitrile] | – | < 100 | –
9 | O=c1n(Cc2c(F)cccc2F)cnn1-c1ccc(Oc2cc(N3CC4(CCCN4)C3)ncc2Cl)c(F)c1 [Example 412, 2-(4-((5-chloro-2-(2,5-diazaspiro[3.4]octan-2-yl)pyridin-4-yl)oxy)-3-fluorophenyl)-4-(2,6-difluorobenzyl)-2,4-dihydro-3H-1,2,4-triazol-3-one] | – | 100 to 1000 | –
10 | CN(CC1CCOCC1)c1cc(Oc2ccc(-n3ncn(Cc4c(F)cccc4F)c3=O)cc2)ccn1 [Example 407, 4-[(2,6-difluorophenyl)methyl]-2-[4-({2-[methyl(oxan-4-ylmethyl)amino]pyridin-4-yl}oxy)phenyl]-1,2,4-triazol-3-one] | – | 100 to 1000 | –
11 | CCOC1CN(c2nccc(Oc3ccc(-n4ncn(Cc5c(F)cccc5F)c4=O)cc3F)c2F)C1 [Example 363, 4-(2,6-difluorobenzyl)-2-(4-((2-(3-ethoxyazetidin-1-yl)-3-fluoropyridin-4-yl)oxy)-3-fluorophenyl)-2,4-dihydro-3H-1,2,4-triazol-3-one] | – | < 100 | –
12 | COC1(C#N)CN(c2cc(Oc3ccc(-n4ncn(Cc5c(F)cccc5F)c4=O)cc3)c(C)cn2)C1 [Example 320, 1-(4-(4-(4-(2,6-difluorobenzyl)-5-oxo-4,5-dihydro-1H-1,2,4-triazol-1-yl)phenoxy)-5-methylpyridin-2-yl)-3-methoxyazetidine-3-carbonitrile] | – | < 100 | –
13 | C[C@H]1C[C@@H](C#N)CN1c1cc(Oc2ccc(-n3ncn(Cc4c(F)cccc4F)c3=O)cc2F)c(F)cn1 [Example 284, (3R,5S)-1-(4-(4-(4-(2,6-difluorobenzyl)-5-oxo-4,5-dihydro-1H-1,2,4-triazol-1-yl)-2-fluorophenoxy)-5-fluoropyridin-2-yl)-5-methylpyrrolidine-3-carbonitrile] | – | < 100 | –
14 | CCOC1CN(c2nccc(Oc3ccc(-n4ncn(Cc5c(F)cccc5F)c4=O)cc3Cl)c2F)C1 [Example 494, 2-(3-chloro-4-((2-(3-ethoxyazetidin-1-yl)-3-fluoropyridin-4-yl)oxy)phenyl)-4-(2,6-difluorobenzyl)-2,4-dihydro-3H-1,2,4-triazol-3-one] | < 100 | – | –
15 | CN(CC1CCCCO1)c1cc(Oc2ccc(-n3ncn(Cc4c(F)cccc4F)c3=O)cc2)ccn1 (stereo not shown) [Example 408, 4-(2,6-difluorobenzyl)-2-(4-((2-(methyl((tetrahydro-2H-pyran-2-yl)methyl)amino)pyridin-4-yl)oxy)phenyl)-2,4-dihydro-3H-1,2,4-triazol-3-one] | – | < 100 | –
16 | COC1(C)CN(c2nccc(Oc3ccc(-n4ncn(Cc5c(F)cccc5Cl)c4=O)cc3)c2F)C1 [Example 491, 4-(2-chloro-6-fluorobenzyl)-2-(4-((3-fluoro-2-(3-methoxy-3-methylazetidin-1-yl)pyridin-4-yl)oxy)phenyl)-2,4-dihydro-3H-1,2,4-triazol-3-one] | < 100 | – | –
17 | NC12CC(Nc3cc(Oc4ccc(-n5ncn(Cc6c(F)cccc6F)c5=O)cc4)ccn3)(C1)C2 [Example 354, 2-(4-((2-((3-aminobicyclo[1.1.1]pentan-1-yl)amino)pyridin-4-yl)oxy)phenyl)-4-(2,6-difluorobenzyl)-2,4-dihydro-3H-1,2,4-triazol-3-one] | – | 100 to 1000 | –
18 | Cc1cnc(N2CC(C)(C(N)=O)C2)cc1Oc1ccc(-n2ncn(Cc3c(F)cccc3F)c2=O)cc1Cl [Example 568, 1-(4-(2-chloro-4-(4-(2,6-difluorobenzyl)-5-oxo-4,5-dihydro-1H-1,2,4-triazol-1-yl)phenoxy)-5-methylpyridin-2-yl)-3-methylazetidine-3-carboxamide] | < 100 | – | –
19 | C[C@H](Nc1cc(Oc2ccc(-n3ncn(Cc4c(F)cccc4F)c3=O)cc2)ccn1)C1CCC1 [Example 349, (S)-2-(4-((2-((1-cyclobutylethyl)amino)pyridin-4-yl)oxy)phenyl)-4-(2,6-difluorobenzyl)-2,4-dihydro-3H-1,2,4-triazol-3-one] | – | 100 to 1000 | –
20 | Cc1nc(C2CC(C(N)=O)C2)sc1Oc1ccc(-n2ncn(Cc3c(F)cccc3F)c2=O)cc1F (stereo not shown) [Example 167, 3-(5-(4-(4-(2,6-difluorobenzyl)-5-oxo-4,5-dihydro-1H-1,2,4-triazol-1-yl)-2-fluorophenoxy)-4-methylthiazol-2-yl)cyclobutane-1-carboxamide] | – | – | IC50 (HT-29 necroptosis cell viability assay, class symbols for IC50, read-out: Activity): < 100 nM
21 | O=c1n(Cc2c(F)cccc2F)cnn1-c1ccc(Oc2cc(N3CC4(CCN4)C3)ncc2Cl)c(F)c1 [Example 411, 2-(4-((5-chloro-2-(1,6-diazaspiro[3.3]heptan-6-yl)pyridin-4-yl)oxy)-3-fluorophenyl)-4-(2,6-difluorobenzyl)-2,4-dihydro-3H-1,2,4-triazol-3-one hydrochloride] | – | < 100 | –
22 | CCOC1CN(c2nn(C)c(Oc3ccc(-n4ncn(Cc5c(F)cccc5F)c4=O)cc3)c2N)C1 [Example 517, 2-(4-((4-amino-3-(3-ethoxyazetidin-1-yl)-1-methyl-1H-pyrazol-5-yl)oxy)phenyl)-4-(2,6-difluorobenzyl)-2,4-dihydro-3H-1,2,4-triazol-3-one] | 1000 to 10000 | – | –
23 | Cc1nc(Oc2ccc(-n3ncn(Cc4c(F)cccc4F)c3=O)c(F)c2)n(C)c1C(N)=O [Example 115, 2-(4-(4-(2,6-difluorobenzyl)-5-oxo-4,5-dihydro-1H-1,2,4-triazol-1-yl)-3-fluorophenoxy)-1,4-dimethyl-1H-imidazole-5-carboxamide] | 1000 to 10000 | – | –
24 | CC1(C#N)CN(c2cc(Oc3ccc(-n4nc5n(c4=O)C(c4ccccc4)CC5)cc3F)c(F)cn2)C1 (stereo not shown) [Example 292, 1-(5-fluoro-4-(2-fluoro-4-(3-oxo-5-phenyl-6,7-dihydro-3H-pyrrolo[2,1-c][1,2,4]triazol-2(5H)-yl)phenoxy)pyridin-2-yl)-3-methylazetidine-3-carbonitrile] | – | < 100 | –
25 | CC(=O)Nc1nc(C)c(Oc2ccc(-n3ncn(Cc4c(F)cccc4F)c3=O)cc2F)s1 [Example 89, N-(5-(4-(4-(2,6-difluorobenzyl)-5-oxo-4,5-dihydro-1H-1,2,4-triazol-1-yl)-2-fluorophenoxy)-4-methylthiazol-2-yl)acetamide] | – | – | IC50 [3]: < 100 nM
26 | CCOC1CN(c2cc(Oc3ccc(-n4ncn(Cc5c(F)cccc5F)c4=O)cc3)c(C)s2)C1 [Example 85, 4-(2,6-difluorobenzyl)-2-(4-((5-(3-ethoxyazetidin-1-yl)-2-methylthiophen-3-yl)oxy)phenyl)-2,4-dihydro-3H-1,2,4-triazol-3-one] | – | – | IC50 [3]: > 10000 nM
27 | Cc1nn(Cc2ccc(-n3ncn(Cc4c(F)cccc4F)c3=O)cc2)cc1Br [Example 184, 2-(4-((4-bromo-3-methyl-1H-pyrazol-1-yl)methyl)phenyl)-4-(2,6-difluorobenzyl)-2,4-dihydro-3H-1,2,4-triazol-3-one] | < 100 | – | –
28 | Cc1nc(C)n(Cc2ccc(-n3ncn(Cc4c(F)cccc4F)c3=O)cc2F)c1C(N)=O [Example 218, 1-(4-(4-(2,6-difluorobenzyl)-5-oxo-4,5-dihydro-1H-1,2,4-triazol-1-yl)-2-fluorobenzyl)-2,4-dimethyl-1H-imidazole-5-carboxamide] | 100 to 1000 | – | –
